Columns and labels:
Adenosine receptor A2a = Adenosine receptor A2a (Homo sapiens, UniProt P29274)
[1] = target: T1, Alpha-2B adrenergic receptor (Homo sapiens, UniProt P18089)
T1 sequence (P18089 whole entry): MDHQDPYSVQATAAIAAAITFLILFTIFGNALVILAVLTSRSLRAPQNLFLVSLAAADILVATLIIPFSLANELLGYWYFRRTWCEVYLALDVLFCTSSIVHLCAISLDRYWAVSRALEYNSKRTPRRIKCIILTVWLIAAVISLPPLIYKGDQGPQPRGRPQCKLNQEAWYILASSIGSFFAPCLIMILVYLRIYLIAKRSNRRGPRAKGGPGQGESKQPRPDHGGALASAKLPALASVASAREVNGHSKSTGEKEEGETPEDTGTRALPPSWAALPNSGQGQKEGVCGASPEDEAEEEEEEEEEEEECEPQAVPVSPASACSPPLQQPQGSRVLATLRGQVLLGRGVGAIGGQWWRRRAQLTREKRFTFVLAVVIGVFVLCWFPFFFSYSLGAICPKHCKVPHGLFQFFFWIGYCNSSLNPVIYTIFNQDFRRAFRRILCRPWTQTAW

Estrogen receptor = target: T2, Estrogen receptor (Homo sapiens, UniProt P03372)
T2 sequence (P03372 whole entry): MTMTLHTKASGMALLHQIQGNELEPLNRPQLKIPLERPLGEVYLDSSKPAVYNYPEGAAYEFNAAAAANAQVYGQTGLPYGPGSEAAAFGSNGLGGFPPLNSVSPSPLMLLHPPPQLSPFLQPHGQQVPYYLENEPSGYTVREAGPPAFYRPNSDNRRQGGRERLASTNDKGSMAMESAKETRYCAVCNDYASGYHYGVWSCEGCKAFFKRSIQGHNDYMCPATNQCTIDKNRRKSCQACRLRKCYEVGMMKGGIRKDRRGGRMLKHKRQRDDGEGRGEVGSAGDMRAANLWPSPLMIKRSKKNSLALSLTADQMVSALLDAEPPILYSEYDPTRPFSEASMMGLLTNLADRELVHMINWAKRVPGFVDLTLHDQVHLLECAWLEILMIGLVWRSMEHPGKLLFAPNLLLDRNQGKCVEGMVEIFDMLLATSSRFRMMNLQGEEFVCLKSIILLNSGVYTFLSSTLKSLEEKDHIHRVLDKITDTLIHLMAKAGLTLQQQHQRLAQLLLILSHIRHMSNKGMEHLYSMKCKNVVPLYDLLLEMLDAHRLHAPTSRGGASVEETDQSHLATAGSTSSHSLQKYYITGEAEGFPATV

[2] = target: Gamma-aminobutyric acid receptor subunit alpha-1 (Rattus norvegicus, UniProt P62813); assay type: functional
Gamma-aminobutyric acid receptor subunit alpha-1, sequence (P62813 whole entry): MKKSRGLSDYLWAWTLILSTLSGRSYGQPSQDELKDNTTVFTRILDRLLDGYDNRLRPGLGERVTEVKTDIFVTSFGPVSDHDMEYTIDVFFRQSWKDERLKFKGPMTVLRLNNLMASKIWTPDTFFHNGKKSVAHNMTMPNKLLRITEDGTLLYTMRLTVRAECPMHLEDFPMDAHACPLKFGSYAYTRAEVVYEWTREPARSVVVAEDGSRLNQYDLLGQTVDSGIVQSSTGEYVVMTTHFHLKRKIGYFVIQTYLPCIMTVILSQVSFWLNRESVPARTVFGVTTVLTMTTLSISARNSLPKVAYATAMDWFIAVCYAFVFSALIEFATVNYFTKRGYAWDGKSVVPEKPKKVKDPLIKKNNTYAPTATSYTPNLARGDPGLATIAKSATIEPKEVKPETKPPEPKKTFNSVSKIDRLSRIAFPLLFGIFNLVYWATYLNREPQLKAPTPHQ

[3] = target: Glutamate receptor ionotropic, NMDA 1 (Rattus norvegicus, UniProt P35439)
Histamine H1 receptor = Histamine H1 receptor (Homo sapiens, UniProt P35367)
Histamine H1 receptor, sequence (P35367 whole entry): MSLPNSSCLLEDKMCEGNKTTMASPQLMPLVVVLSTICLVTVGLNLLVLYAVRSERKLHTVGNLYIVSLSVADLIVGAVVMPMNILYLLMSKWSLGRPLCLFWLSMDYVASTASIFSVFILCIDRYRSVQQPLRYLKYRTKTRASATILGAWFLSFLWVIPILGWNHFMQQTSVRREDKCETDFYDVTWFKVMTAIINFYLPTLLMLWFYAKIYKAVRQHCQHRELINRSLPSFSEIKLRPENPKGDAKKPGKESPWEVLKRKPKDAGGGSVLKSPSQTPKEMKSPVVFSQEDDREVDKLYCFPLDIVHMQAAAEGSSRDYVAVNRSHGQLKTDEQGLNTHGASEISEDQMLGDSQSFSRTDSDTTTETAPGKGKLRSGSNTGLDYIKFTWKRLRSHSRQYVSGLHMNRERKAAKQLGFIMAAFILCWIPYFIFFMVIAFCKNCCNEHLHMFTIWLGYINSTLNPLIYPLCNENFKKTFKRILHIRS

[4] = target: T3, 5-hydroxytryptamine receptor 1A (Homo sapiens, UniProt P08908); assay type: functional, cell-based
T3 sequence (P08908 whole entry): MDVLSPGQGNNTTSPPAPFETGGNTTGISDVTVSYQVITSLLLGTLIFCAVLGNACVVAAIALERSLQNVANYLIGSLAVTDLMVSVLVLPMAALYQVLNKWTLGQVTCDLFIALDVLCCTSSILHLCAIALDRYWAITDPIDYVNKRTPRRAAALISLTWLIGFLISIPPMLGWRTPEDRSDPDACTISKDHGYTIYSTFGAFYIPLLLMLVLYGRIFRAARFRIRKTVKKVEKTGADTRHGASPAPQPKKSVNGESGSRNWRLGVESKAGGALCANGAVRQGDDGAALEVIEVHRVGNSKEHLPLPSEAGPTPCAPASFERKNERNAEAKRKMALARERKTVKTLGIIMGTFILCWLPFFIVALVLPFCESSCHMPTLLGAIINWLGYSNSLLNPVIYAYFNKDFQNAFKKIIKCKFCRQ

[5] = target: T4, 5-hydroxytryptamine receptor 2C (Homo sapiens, UniProt P28335)
T4 sequence (P28335 whole entry): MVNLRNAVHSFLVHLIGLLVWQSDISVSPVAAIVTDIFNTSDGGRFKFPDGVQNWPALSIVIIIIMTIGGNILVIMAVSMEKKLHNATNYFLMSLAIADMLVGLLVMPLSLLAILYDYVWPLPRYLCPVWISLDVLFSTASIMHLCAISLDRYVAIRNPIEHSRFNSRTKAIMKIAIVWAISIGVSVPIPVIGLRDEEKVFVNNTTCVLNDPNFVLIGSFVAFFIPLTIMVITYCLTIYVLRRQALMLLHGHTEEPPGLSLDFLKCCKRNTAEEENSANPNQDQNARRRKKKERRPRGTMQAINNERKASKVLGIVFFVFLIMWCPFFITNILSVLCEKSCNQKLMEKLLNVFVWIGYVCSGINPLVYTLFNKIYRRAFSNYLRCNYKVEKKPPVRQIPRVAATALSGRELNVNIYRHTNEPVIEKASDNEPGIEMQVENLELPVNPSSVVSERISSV

Melanocortin receptor 3 = Melanocortin receptor 3 (Homo sapiens, UniProt P41968)
Melanocortin receptor 3, sequence (P41968 whole entry): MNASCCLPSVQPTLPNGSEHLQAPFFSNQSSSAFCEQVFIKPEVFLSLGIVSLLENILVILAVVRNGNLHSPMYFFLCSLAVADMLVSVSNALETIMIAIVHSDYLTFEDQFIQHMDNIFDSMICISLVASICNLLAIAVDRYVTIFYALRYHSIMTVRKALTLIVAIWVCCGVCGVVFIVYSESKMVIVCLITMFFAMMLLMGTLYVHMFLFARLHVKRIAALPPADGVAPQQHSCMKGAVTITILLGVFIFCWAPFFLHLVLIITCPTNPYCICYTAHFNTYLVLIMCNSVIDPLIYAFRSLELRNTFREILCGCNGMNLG

[6] = target: Delta-type opioid receptor (Homo sapiens, UniProt P41143)
Delta-type opioid receptor, sequence (P41143 whole entry): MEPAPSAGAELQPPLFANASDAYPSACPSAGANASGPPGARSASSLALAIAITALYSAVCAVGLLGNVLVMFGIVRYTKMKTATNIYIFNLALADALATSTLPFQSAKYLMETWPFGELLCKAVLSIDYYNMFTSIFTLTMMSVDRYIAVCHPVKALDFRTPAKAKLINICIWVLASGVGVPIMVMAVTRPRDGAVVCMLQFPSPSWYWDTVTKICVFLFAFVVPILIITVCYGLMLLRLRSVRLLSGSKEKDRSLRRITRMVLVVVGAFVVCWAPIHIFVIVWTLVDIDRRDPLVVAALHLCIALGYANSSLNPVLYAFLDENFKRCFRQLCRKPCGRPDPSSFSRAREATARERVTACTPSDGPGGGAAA

[7] = target: 3',5'-cyclic-AMP phosphodiesterase 4D (Homo sapiens, UniProt Q08499); assay type: functional
3',5'-cyclic-AMP phosphodiesterase 4D, sequence (Q08499 whole entry): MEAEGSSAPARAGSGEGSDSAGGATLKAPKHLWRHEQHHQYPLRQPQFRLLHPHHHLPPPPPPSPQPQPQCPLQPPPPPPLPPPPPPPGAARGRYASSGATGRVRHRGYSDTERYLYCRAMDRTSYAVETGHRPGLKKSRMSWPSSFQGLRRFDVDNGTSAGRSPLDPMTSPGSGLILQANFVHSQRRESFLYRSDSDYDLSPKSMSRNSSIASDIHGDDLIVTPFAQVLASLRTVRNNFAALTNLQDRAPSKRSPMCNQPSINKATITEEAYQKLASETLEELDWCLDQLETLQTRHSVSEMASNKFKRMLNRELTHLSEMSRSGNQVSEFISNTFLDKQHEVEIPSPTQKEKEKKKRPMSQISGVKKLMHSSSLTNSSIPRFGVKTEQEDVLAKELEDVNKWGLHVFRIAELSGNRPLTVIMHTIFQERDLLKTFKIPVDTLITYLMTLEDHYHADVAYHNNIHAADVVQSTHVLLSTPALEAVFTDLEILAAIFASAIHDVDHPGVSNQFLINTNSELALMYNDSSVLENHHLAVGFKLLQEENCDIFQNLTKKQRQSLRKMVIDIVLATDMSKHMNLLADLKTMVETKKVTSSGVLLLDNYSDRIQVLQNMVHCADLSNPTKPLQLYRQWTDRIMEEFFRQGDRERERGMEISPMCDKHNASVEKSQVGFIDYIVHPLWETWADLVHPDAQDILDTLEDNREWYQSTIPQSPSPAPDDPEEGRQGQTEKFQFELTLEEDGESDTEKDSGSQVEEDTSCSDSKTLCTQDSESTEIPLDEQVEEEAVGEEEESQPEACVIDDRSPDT

[8] = target: cGMP-inhibited 3',5'-cyclic phosphodiesterase 3A (Homo sapiens, UniProt Q14432); assay type: functional
cGMP-inhibited 3',5'-cyclic phosphodiesterase 3A, sequence (Q14432 whole entry): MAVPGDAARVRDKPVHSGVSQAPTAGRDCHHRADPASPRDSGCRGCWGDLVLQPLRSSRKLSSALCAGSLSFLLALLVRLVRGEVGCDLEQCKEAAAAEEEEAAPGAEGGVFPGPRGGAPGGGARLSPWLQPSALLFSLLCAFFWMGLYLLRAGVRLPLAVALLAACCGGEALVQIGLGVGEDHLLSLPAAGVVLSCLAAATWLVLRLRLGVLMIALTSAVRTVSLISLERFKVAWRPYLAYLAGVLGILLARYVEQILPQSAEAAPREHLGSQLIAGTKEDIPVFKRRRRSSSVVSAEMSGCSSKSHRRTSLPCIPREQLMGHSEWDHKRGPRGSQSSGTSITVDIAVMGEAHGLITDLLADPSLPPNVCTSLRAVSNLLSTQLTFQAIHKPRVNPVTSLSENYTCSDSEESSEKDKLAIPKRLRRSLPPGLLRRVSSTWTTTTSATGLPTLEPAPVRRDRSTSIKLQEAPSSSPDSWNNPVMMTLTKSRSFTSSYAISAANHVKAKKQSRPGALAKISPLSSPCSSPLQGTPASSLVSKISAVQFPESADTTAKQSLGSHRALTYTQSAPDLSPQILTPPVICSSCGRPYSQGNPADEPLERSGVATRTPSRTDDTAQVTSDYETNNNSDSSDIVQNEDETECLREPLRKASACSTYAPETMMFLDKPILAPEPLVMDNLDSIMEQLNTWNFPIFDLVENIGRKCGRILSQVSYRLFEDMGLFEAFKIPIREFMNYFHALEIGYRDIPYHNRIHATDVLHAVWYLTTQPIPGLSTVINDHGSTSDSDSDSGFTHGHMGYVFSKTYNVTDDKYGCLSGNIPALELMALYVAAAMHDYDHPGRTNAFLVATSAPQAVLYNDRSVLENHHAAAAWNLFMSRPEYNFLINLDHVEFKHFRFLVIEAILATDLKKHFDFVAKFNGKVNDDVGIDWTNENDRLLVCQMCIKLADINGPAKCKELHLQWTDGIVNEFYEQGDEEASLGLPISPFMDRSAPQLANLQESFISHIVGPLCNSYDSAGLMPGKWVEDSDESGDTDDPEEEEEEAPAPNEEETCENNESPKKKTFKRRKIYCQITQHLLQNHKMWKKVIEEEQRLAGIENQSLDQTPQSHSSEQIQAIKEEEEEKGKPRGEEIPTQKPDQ

Histamine H3 receptor = Histamine H3 receptor (Homo sapiens, UniProt Q9Y5N1)
Histamine H3 receptor, sequence (Q9Y5N1 whole entry): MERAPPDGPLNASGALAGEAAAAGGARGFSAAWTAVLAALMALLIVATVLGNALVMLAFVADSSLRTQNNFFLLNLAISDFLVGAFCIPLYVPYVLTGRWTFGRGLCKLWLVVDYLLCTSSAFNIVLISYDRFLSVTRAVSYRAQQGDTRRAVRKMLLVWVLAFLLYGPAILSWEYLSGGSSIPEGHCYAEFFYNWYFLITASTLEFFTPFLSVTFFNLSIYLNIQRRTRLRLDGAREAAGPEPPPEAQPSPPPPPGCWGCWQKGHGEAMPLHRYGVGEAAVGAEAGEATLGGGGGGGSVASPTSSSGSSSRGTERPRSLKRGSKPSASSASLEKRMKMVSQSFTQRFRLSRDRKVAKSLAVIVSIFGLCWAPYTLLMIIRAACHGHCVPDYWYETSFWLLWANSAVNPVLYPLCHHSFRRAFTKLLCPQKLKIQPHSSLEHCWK
Also: assay procedure not described here.

Adenosine receptor A2a, sequence (P29274 whole entry): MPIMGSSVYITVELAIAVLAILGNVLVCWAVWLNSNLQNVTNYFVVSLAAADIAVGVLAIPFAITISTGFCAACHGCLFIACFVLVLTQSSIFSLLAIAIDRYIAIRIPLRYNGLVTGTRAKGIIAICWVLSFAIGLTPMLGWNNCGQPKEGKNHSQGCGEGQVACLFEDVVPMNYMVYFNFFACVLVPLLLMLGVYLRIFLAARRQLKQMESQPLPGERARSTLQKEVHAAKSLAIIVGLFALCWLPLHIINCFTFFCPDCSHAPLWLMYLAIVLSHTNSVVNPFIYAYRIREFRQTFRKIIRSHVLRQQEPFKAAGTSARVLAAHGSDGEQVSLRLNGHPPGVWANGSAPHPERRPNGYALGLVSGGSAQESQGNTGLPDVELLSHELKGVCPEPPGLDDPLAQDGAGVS

CC(C(=O)O)c1ccc(N2Cc3ccccc3C2=O)cc1 (centres undefined) [INDOPROFEN]
AC50 (Adenosine receptor A2a): > 30 µM
AC50 [1]: > 30 µM
AC50 (Estrogen receptor): > 30 µM
AC50 [2]: > 30 µM
AC50 [3]: > 30 µM
AC50 (Histamine H1 receptor): > 30 µM
AC50 [4]: > 30 µM
AC50 [5]: > 30 µM
AC50 (Melanocortin receptor 3): > 30 µM
AC50 [6]: > 30 µM
AC50 [7]: > 30 µM
AC50 [8]: > 30 µM
AC50 (Histamine H3 receptor): > 30 µM

O=C(O)CCCCCCNC1c2ccccc2CCc2ccccc21 [AMINEPTINE]
AC50 (Adenosine receptor A2a): > 30 µM
AC50 [1]: > 30 µM
AC50 (Estrogen receptor): > 30 µM
AC50 [2]: > 30 µM
AC50 [3]: > 30 µM
AC50 (Histamine H1 receptor): > 30 µM
AC50 [4]: > 30 µM
AC50 [5]: 0.17 µM
AC50 (Melanocortin receptor 3): > 30 µM
AC50 [6]: > 30 µM
AC50 [7]: > 30 µM
AC50 [8]: > 30 µM
AC50 (Histamine H3 receptor): > 30 µM

CC[C@@H]1C(=O)OC[C@@H]1Cc1cncn1C [PILOCARPINE]
AC50 (Adenosine receptor A2a): > 30 µM
AC50 [1]: > 10 µM
AC50 (Estrogen receptor): > 30 µM
AC50 [2]: > 10 µM
AC50 [3]: > 10 µM
AC50 (Histamine H1 receptor): > 10 µM
AC50 [4]: > 30 µM
AC50 [5]: > 30 µM
AC50 (Melanocortin receptor 3): > 30 µM
AC50 [6]: > 30 µM
AC50 [7]: > 30 µM
AC50 [8]: > 30 µM
AC50 (Histamine H3 receptor): > 10 µM

O=C(O)C1=C(CSc2nnnn2CS(=O)(=O)O)CS[C@@H]2[C@H](NC(=O)[C@H](O)c3ccccc3)C(=O)N12 [CEFONICID]
AC50 (Adenosine receptor A2a): > 30 µM
AC50 [1]: > 30 µM
AC50 (Estrogen receptor): > 30 µM
AC50 [2]: > 30 µM
AC50 [3]: > 30 µM
AC50 (Histamine H1 receptor): > 30 µM
AC50 [4]: > 30 µM
AC50 [5]: > 30 µM
AC50 (Melanocortin receptor 3): > 30 µM
AC50 [6]: > 30 µM
AC50 [7]: > 30 µM
AC50 [8]: > 30 µM
AC50 (Histamine H3 receptor): > 30 µM

Nc1nc(/C(=C/CC(=O)O)C(=O)N[C@@H]2C(=O)N3C(C(=O)O)=CCS[C@H]23)cs1 [CEFTIBUTEN]
AC50 (Adenosine receptor A2a): > 30 µM
AC50 [1]: > 30 µM
AC50 (Estrogen receptor): > 30 µM
AC50 [2]: > 30 µM
AC50 [3]: > 30 µM
AC50 (Histamine H1 receptor): > 30 µM
AC50 [4]: > 30 µM
AC50 [5]: > 30 µM
AC50 (Melanocortin receptor 3): > 30 µM
AC50 [6]: > 30 µM
AC50 [7]: > 30 µM
AC50 [8]: > 30 µM
AC50 (Histamine H3 receptor): > 30 µM

COc1ccccc1OCCNCC(O)c1ccc(C)c(S(N)(=O)=O)c1 (centres undefined) [AMOSULALOL]
AC50 (Adenosine receptor A2a): > 30 µM
AC50 [1]: 6.9 µM
AC50 (Estrogen receptor): > 30 µM
AC50 [2]: > 30 µM
AC50 [3]: > 30 µM
AC50 (Histamine H1 receptor): 16 µM
AC50 [4]: > 30 µM
AC50 [5]: > 30 µM
AC50 (Melanocortin receptor 3): > 30 µM
AC50 [6]: > 30 µM
AC50 [7]: 6.7 µM
AC50 [8]: > 10 µM
AC50 (Histamine H3 receptor): > 30 µM

CC(C[N+](C)(C)C)OC(N)=O (centres undefined) [BETHANECHOL]
AC50 (Adenosine receptor A2a): > 10 µM
AC50 [1]: > 10 µM
AC50 (Estrogen receptor): > 10 µM
AC50 [2]: > 10 µM
AC50 [3]: > 10 µM
AC50 (Histamine H1 receptor): > 10 µM
AC50 [4]: > 10 µM
AC50 [5]: > 30 µM
AC50 (Melanocortin receptor 3): > 10 µM
AC50 [6]: > 30 µM
AC50 [7]: > 30 µM
AC50 [8]: > 30 µM
AC50 (Histamine H3 receptor): > 10 µM

CC(=O)OCC(=O)[C@@]12N=C(C)O[C@@H]1C[C@H]1[C@@H]3CCC4=CC(=O)C=C[C@]4(C)[C@H]3[C@@H](O)C[C@@]12C [DEFLAZACORT]
AC50 (Adenosine receptor A2a): > 30 µM
AC50 [1]: > 30 µM
AC50 (Estrogen receptor): > 30 µM
AC50 [2]: > 30 µM
AC50 [3]: > 30 µM
AC50 (Histamine H1 receptor): > 30 µM
AC50 [4]: > 30 µM
AC50 [5]: > 30 µM
AC50 (Melanocortin receptor 3): > 30 µM
AC50 [6]: > 30 µM
AC50 [7]: > 30 µM
AC50 [8]: > 30 µM
AC50 (Histamine H3 receptor): > 30 µM

Source: ChEMBL document CHEMBL5291721, “A preclinical secondary pharmacology resource illuminates target-adverse drug reaction associations of marketed drugs” (Nat Commun, 2023)
